In paper PMC9422153, “A novel antibiotic combination of linezolid and polymyxin B octapeptide PBOP against clinical Pseudomonas aeruginosa strains” (Annals of Clinical Microbiology and Antimicrobials, 2022):
Converted amounts (≈) assume the structure as drawn. Where two headings read alike, the source gives them in different places. Bridge positions count the residues as written; N and C are the ends. Square brackets hold non-standard residues; d marks the D form. Peptide text beside a SMILES is read from it. Dab = NCC[C@H](N)C(=O)O

What was measured:
P. aeruginosa PA14 [1] = format: cell-based, Pseudomonas aeruginosa
Experimental: Synergistic effect of the 6 polymyxin B or polymyxin E derivatives in combination with 5 conventional antibacterial agents was detected using the checkerboard method as described on the previous study. Briefly, the serial concentrations of test compounds were prepared by a two-dimensional array. The tested dilutions were based on the MICs of the two different compounds. The fractional inhibitory concentration index (FIC) was applied to illuminate the checkerboard test based on formulas as follows: FIC Index = […] = MICA+B/MICA, and FICB = MICB+A/MICB. The value of MICA+B is indicated as the MIC value of Compound A with Compound B, and equally for MICB+A. […] The experiments were repeated in triplicate.

[2] = test system: all tested P. aeruginosa strains; format: cell-based, Pseudomonas aeruginosa; conditions: 24 h
Experimental: (§1) The MICs (minimal inhibitory concentrations) were determined for different P. aeruginosa strains using micro-dilution method, with a concentration of 1 × 10^5 CFU/mL on LB broth for 24 h, according to the published procedures. The experiment was carried out in three repeats.

P. aeruginosa PAB41 = assay: MIC, micro-dilution method; format: cell-based; conditions: Pseudomonas aeruginosa
Experimental: as §1

P. aeruginosa PA2 = assay: MIC, micro-dilution method; format: cell-based; conditions: Pseudomonas aeruginosa
Experimental: as §1

P. aeruginosa ATCC27853 = assay: MIC, micro-dilution method; format: cell-based; conditions: Pseudomonas aeruginosa
Experimental: as §1

P. aeruginosa PA14 [3] = assay: MIC, micro-dilution method; format: cell-based; conditions: Pseudomonas aeruginosa
Experimental: as §1

PA2 = assay: Time-kill assay, bacterial burdens in vitro; format: cell-based, Pseudomonas aeruginosa; conditions: PA2, 1 × 10^5 CFU in 96-well plates; 1 h, 6 h, 12 h, 24 h; LP compared to single-treated groups
Experimental: (§2) To explore the antibacterial activity of LP combination in the P. aeruginosa in vitro, PA14 were cultured in 96-well plates and were treated with PBS, linezolid, PBOP or LP for 1 h, 6 h, 12 h, and 24 h.
(§3) A1–A4 1 × 10^5 CFU of PA14 were seeded in 96-well plates and treated with PBS, linezolid, PBOP or combination of linezolid and PBOP (LP) for 1 h (A1), 6 h (A2), 12 h (A3), and 24 h (A4). The bacteria burdens on the LB agar plates were counted. B1–B4 1 × 10^5 CFU of PA2 were seeded in 96-well plates and treated with PBS, linezolid, PBOP or LP for 1 h (B1), 6 h (B2), 12 h (B3), and 24 h (B4). C1–C4 1 × 10^5 CFU of PAB41 were seeded in 96-well plates and treated with PBS, linezolid, PBOP or LP for 1 h (C1), 6 h (C2), 12 h (C3), and 24 h (C4). The bacteria burdens were determined as described above.

PAB41 = assay: Time-kill assay, bacterial burdens in vitro; format: cell-based, Pseudomonas aeruginosa; conditions: PAB41, 1 × 10^5 CFU in 96-well plates; 1 h, 6 h, 12 h, 24 h; LP compared to single-treated groups
Experimental: as §2, §3

[4] = test system: C. elegans infected with PA14; assay: C. elegans infection model; format: in vivo, Caenorhabditis elegans; conditions: PA14 infection on SK plate, linezolid 8 μg/mL, PBOP 16 μg/mL
Experimental: To determine the protective effect of LP, all groups of C. elegans were infected with PA14 in slow killing (SK) agar plate and were treated with PBS, linezolid (8 μg/mL), PBOP (16 μg/mL) or LP. The mortality of the infected C. elegans was evaluated for 7 days. […] The bacterial loads inside the C. elegans were counted at 12 h or 24 h post-infection as previously described. Briefly, the infected nematodes were mixed with silicon carbide particles and vortexed at maximum speed for one minute. The resulting suspension was serially diluted and plated on a selective agar plate to determine the bacterial CFU. This experiment was performed in triplicate.

[5] = P. aeruginosa PAB41 (carbapenem-resistant clinical strain), micro-dilution, 1 × 10^5 CFU/mL, LB broth, 24 h, three repeats, read-out: MIC
[6] = P. aeruginosa PA2 (multidrug-resistant clinical strain), micro-dilution, 1 × 10^5 CFU/mL, LB broth, 24 h, three repeats, read-out: MIC
[7] = P. aeruginosa ATCC27853, micro-dilution, 1 × 10^5 CFU/mL, LB broth, 24 h, three repeats, read-out: MIC
[8] = P. aeruginosa PA14, micro-dilution, 1 × 10^5 CFU/mL, LB broth, 24 h, three repeats, read-out: MIC

| SMILES | FIC (lowest FIC Index) combined with Erythromycin (P. aeruginosa PA14 [1]) | FIC (lowest FIC Index) combined with Lincomycin (P. aeruginosa PA14 [1]) | FIC (lowest FIC Index) combined with Linezolid (P. aeruginosa PA14 [1]) | FIC (lowest FIC Index) combined with Nisin (P. aeruginosa PA14 [1]) | FIC (lowest FIC Index) combined with Vancomycin (P. aeruginosa PA14 [1]) | MIC [2] | MIC (P. aeruginosa PAB41; [5]) [µg/mL] | MIC (P. aeruginosa PA2; [6]) [µg/mL] | MIC (P. aeruginosa ATCC27853; [7]) [µg/mL] | MIC (P. aeruginosa PA14 [3]; [8]) [µg/mL] | other results |
| --- | --- | --- | --- | --- | --- | --- | --- | --- | --- | --- | --- |
| CC(C)C[C@@H]1NC(=O)[C@@H](CC(C)C)NC(=O)[C@H](CCN)NC(=O)[C@@H](NC(=O)[C@H](CCN)NC(=O)[C@@H](N)[C@@H](C)O)CCNC(=O)[C@H]([C@@H](C)O)NC(=O)[C@H](CCN)NC(=O)[C@H](CCN)NC1=O [PENP, polymyxin E nonapeptide] (H-T[Dab][Dab][Dab][dL]L[Dab][Dab]T; lactam 3-C (inferred); N-terminus assumed) | 0.281 | 0.125 | 0.281 | 0.375 | 0.188 | over 256 µg/mL |  |  |  |  |  |
| CC(C)C[C@@H]1NC(=O)[C@@H](CC(C)C)NC(=O)[C@H](CCN)NC(=O)[C@@H](NC(=O)[C@@H](N)CCN)CCNC(=O)[C@H]([C@@H](C)O)NC(=O)[C@H](CCN)NC(=O)[C@H](CCN)NC1=O [PEOP, polymyxin E octapeptide] (H-[Dab][Dab][Dab][dL]L[Dab][Dab]T; lactam 2-C (inferred); N-terminus assumed) | 0.313 | 0.141 | 0.188 | 0.313 | 0.125 | over 256 µg/mL |  |  |  |  |  |
| CC1(C)S[C@@H]2[C@H](NC(=O)Cc3ccccc3)C(=O)N2[C@H]1C(=O)O [Penicillin G, penicillin G] |  |  |  |  |  |  | 4 (≈ 12 µM) | 4 (≈ 12 µM) | 8 (≈ 23.9 µM) | 8 (≈ 23.9 µM) |  |
| CC1COc2c(N3CCN(C)CC3)c(F)cc3c(=O)c(C(=O)O)cn1c23 (centres unmarked) [Ofloxacin, ofloxacin] |  |  |  |  |  |  | 1 (≈ 2.77 µM) | 0.5 (≈ 1.38 µM) | 0.5 (≈ 1.38 µM) | 0.5 (≈ 1.38 µM) |  |
| CC(C)C[C@@H]1NC(=O)[C@@H](Cc2ccccc2)NC(=O)[C@H](CCN)NC(=O)[C@@H](N)CCNC(=O)[C@H]([C@@H](C)O)NC(=O)[C@H](CCN)NC(=O)[C@H](CCN)NC1=O [PBHP, polymyxin B heptapeptide] (H-[Dab][Dab][dF]L[Dab][Dab]T; lactam 1-C (inferred); N-terminus assumed) | 0.281 | 0.188 | 0.141 | 0.375 | 0.141 | over 256 µg/mL |  |  |  |  |  |
| CC(=O)NC[C@H]1CN(c2ccc(N3CCOCC3)c(F)c2)C(=O)O1 [Linezolid, linezolid] |  |  |  |  |  |  | > 256 | > 256 | > 256 | > 256 | bacterial CFU / bactericidal activity (PA2): no remarkably bactericidal activity; bacterial CFU / bactericidal activity (PAB41): no remarkably bactericidal activity; bacterial loads inside C. elegans ([4]; 12 h and 24 h post infection): a great number of bacteria were detected; survival of infected C. elegans ([4]; monitored 7 days): died at day 3 |
| CC1(C)S[C@@H]2[C@H](NC(=O)[C@H](N)c3ccccc3)C(=O)N2[C@H]1C(=O)O [Ampicillin, ampicillin] |  |  |  |  |  |  | 8 (≈ 22.9 µM) |  | 4 (≈ 11.4 µM) |  |  |
| CN[C@H](CC(C)C)C(=O)N[C@H]1C(=O)N[C@@H](CC(N)=O)C(=O)N[C@H]2C(=O)N[C@H]3C(=O)N[C@H](C(=O)N[C@H](C(=O)O)c4cc(O)cc(O)c4-c4cc3ccc4O)[C@H](O)c3ccc(c(Cl)c3)Oc3cc2cc(c3O[C@@H]2O[C@H](CO)[C@@H](O)[C@H](O)[C@H]2O[C@H]2C[C@](C)(N)[C@H](O)[C@H](C)O2)Oc2ccc(cc2Cl)[C@H]1O [Vancomycin, vancomycin] |  |  |  |  |  |  |  |  |  |  | MIC (P. aeruginosa PAB41; PAB41, 24 h): > 256 µg/mL; MIC (P. aeruginosa PA2; PA2, 24 h): > 256 µg/mL; MIC (P. aeruginosa ATCC27853; ATCC27853, 24 h): > 256 µg/mL; MIC (P. aeruginosa PA14 [3]; PA14, 24 h): > 256 µg/mL |
| CC(C)C[C@@H]1NC(=O)[C@@H](CC(C)C)NC(=O)[C@H](CCN)NC(=O)[C@@H](N)CCNC(=O)[C@H]([C@@H](C)O)NC(=O)[C@H](CCN)NC(=O)[C@H](CCN)NC1=O [PEHP, polymyxin E heptapeptide] (H-[Dab][Dab][dL]L[Dab][Dab]T; lactam 1-C (inferred); N-terminus assumed) | 0.258 | 0.250 | 0.141 | 0.266 | 0.156 | over 256 µg/mL |  |  |  |  |  |
| CCC[C@@H]1C[C@@H](C(=O)N[C@@H]([C@H]2O[C@H](SC)[C@H](O)[C@@H](O)[C@H]2O)[C@@H](C)O)N(C)C1 [Lincomycin, lincomycin] |  |  |  |  |  |  | > 256 | > 256 | > 256 | > 256 |  |
| CN(C)[C@@H]1C(O)=C(C(N)=O)C(=O)[C@@]2(O)C(O)=C3C(=O)c4c(O)ccc(Cl)c4[C@@](C)(O)[C@H]3C[C@@H]12 [Chlortetracycline, chlortetracycline] |  |  |  |  |  |  | 8 (≈ 16.7 µM) | 4 (≈ 8.35 µM) | 4 (≈ 8.35 µM) | 4 (≈ 8.35 µM) |  |
| CN(C)c1cc(NC(=O)CNC(C)(C)C)c(O)c2c1C[C@H]1C[C@H]3[C@H](N(C)C)C(O)=C(C(N)=O)C(=O)[C@@]3(O)C(O)=C1C2=O [Tigecycline, tigecycline] |  |  |  |  |  |  | 2 (≈ 3.41 µM) | 4 (≈ 6.83 µM) | 4 (≈ 6.83 µM) | 2 (≈ 3.41 µM) |  |
| CC[C@H]1OC(=O)[C@H](C)[C@@H](O[C@H]2C[C@@](C)(OC)[C@@H](O)[C@H](C)O2)[C@H](C)[C@@H](O[C@@H]2O[C@H](C)C[C@H](N(C)C)[C@H]2O)[C@](C)(O)C[C@@H](C)C(=O)[C@H](C)[C@@H](O)[C@]1(C)O [Erythromycin, erythromycin] |  |  |  |  |  |  | > 256 | > 256 | > 256 | > 256 |  |
| CC(C)C[C@@H]1NC(=O)[C@@H](Cc2ccccc2)NC(=O)[C@H](CCN)NC(=O)[C@@H](NC(=O)[C@H](CCN)NC(=O)[C@@H](N)[C@@H](C)O)CCNC(=O)[C@H]([C@@H](C)O)NC(=O)[C@H](CCN)NC(=O)[C@H](CCN)NC1=O [PBNP, polymyxin B nonapeptide] (H-T[Dab][Dab][Dab][dF]L[Dab][Dab]T; lactam 3-C (inferred); N-terminus assumed) | 0.188 | 0.156 | 0.156 | 0.250 | 0.250 | over 256 µg/mL |  |  |  |  |  |
